This data set deals with Caco-2 cells. The experiment in a line: Effect on migration of gastrointestinal mucosal tissue cells (cut in a confluent Caco-2 cell layer, cell spreading area). In kind it is cell-based, human. The settings on record: for Migration of Caco-2 cells (%): 18 hours, control = 100%, mean ± standard error, 8 samples. The method, then:
An effect on cell migration was studied by the following method using Caco-2 cells which are a human colon cancer cell line.
In a 24-well plate coated with type IV collagen, Caco-2 cells were seeded at […] cells per well and cultured to confluence in a DMEM medium containing 10% FBS. A cut was formed in the cell layer using a razor blade, and a cell-free region was created with a cotton swab. After washing with a DMEM medium containing 1% FBS, the cells were cultured for 18 hours in the same medium containing each test compound under conditions of 37° C. and 5% CO2. The effect on the migration of Caco-2 cells was studied by taking pictures before adding the test compound and at 18 hours after the addition of the test compound and comparing cell spreading areas in a fixed region at 18 hours after the addition of the test compounds. Further, Caco-2 cells cultured in the same manner in the medium without containing the test compound were used as a control.
The results of the case where a single agent of SSSR was used are shown in Table 1, and the results of the case where SSSR and FGLM-NH2 were used in combination are shown in Table 2. In the tables, the migration of the Caco-2 cells is expressed as a mean and standard error calculated from the results of 8 samples for each test compound by taking the migration of the control cells as a standard (100%). Incidentally, the symbol “★★” indicates a statistical significance at a P value of <0.001 compared to the control.

Residues, ends and D or L forms follow the SMILES beside them.

As for `CSCC[C@H](NC(=O)[C@H](CC(C)C)NC(=O)CNC(=O)[C@@H](N)Cc1ccccc1)C(N)=O` [FGLM-NH2, Phe-Gly-Leu-Met-NH2] (H-FGLM-NH2; N-terminus assumed), the “Migration of Caco-2 cells (%)” value (FGLM-NH2 20 μM) worked out at 105.9 ± 3.9%. Besides, the “Effect on migration of Caco-2 cells (in words)” value (single agent, FGLM-NH2 trifluoroacetate at 20 μM) is reported as “does not promote the migration of Caco-2 cells”.

Regarding `N=C(N)NCCC[C@H](NC(=O)[C@H](CO)NC(=O)[C@H](CO)NC(=O)[C@@H](N)CO)C(=O)O` [SSSR, Ser-Ser-Ser-Arg] (H-SSSR-OH; N-terminus and C-terminus assumed), the “Migration of Caco-2 cells (%)” value reads like this: (SSSR 10 nM) 109.7 ± 5.1%; (SSSR 30 μM) 125.0 ± 2.0 %. Besides, the “Effect on migration of Caco-2 cells (in words)” value is, setting by setting: (SSSR trifluoroacetate at 30 μM) “promotes the migration of Caco-2 cells”; (single agent, SSSR trifluoroacetate at 10 nM) “does not promote the migration of Caco-2 cells”.

Values taken from patent US20120225817A1, “THERAPEUTIC AGENT FOR GASTROINTESTINAL DISEASE” (Santen Pharmaceutical Co., Ltd., priority 2009, published 2012).
